According to the Deep4Chem optical property database:
Values belong to the compound of their own block, whether it stands above or below them.

Assay: solvent given as SMILES

fluorescence lifetime (in CO): 1.7 ns
SMILES: CCOC(=O)CCCCCn1c2ccccc2c(=O)c2cc(I)ccc21

fluorescence lifetime (in ClCCl): 1.23 ns
SMILES: COC(=O)c1cc(=O)n(C)c2cc(-c3ccccc3N(C)C)sc12

fluorescence lifetime (in C1CCOC1): 4.6 ns
SMILES: Cc1ccc(-c2cnc3nn4ccccc4c3c2)cc1

fluorescence lifetime (in ClC(Cl)Cl): 5.11 ns
SMILES: CCOC(=O)C1(O)c2cc3ccc4cccc5ccc(c2C(=O)N1C(C)(C)C)c3c45 (stereo not given)

fluorescence lifetime (in ClCCl): 11.1 ns
SMILES: CC[B-]1(CC)c2cccc3c4c5c(cccc5c(c23)-c2cccc(C)[n+]21)[B-](CC)(CC)[n+]1c(C)cccc1-4

fluorescence lifetime (in CO): 0.24 ns | fluorescence lifetime (in ClC(Cl)Cl): 1.95 ns
SMILES: CC[n+]1c(C=C2C(=O)C(C=C3N(C)c4ccccc4C3(C)C)=C2[O-])sc2ccccc21

fluorescence lifetime (in CC#N): 2.8 ns
SMILES: CCN(CC)c1ccc2cc(-c3nc4ccccc4n3C)c(=O)oc2c1

fluorescence lifetime (in ClCCl): 4.56 ns
SMILES: CCOC(=O)c1ccc(C2CC(c3cccc4ccccc34)=NN2c2ccc(C)cc2)cc1 (stereo not given)

fluorescence lifetime (in ClCCl): 3.36 ns
SMILES: COC(=O)c1[nH]c(-c2ccccc2)c2nnc3c4ccccc4oc3c12

The next lines start with the compound.

SMILES: CNc1ccc(/C=C/C#N)cc1
fluorescence lifetime (in C1CCCCC1): 0.6 ns | fluorescence lifetime (in CC#N): 0.6 ns | fluorescence lifetime (in O): 1.13 ns

SMILES: CC1=[N+]2C(=C(c3ccc(C(=C(c4ccccc4)c4ccccc4)c4ccccc4)cc3)c3ccc(/C=C/c4ccc(C(=C(c5ccccc5)c5ccccc5)c5ccccc5)cc4)n3[B-]2(F)F)C=C1
fluorescence lifetime (in C1CCOC1): 3.5 ns

SMILES: CCn1c2ccccc2c2cc(-c3cc(-c4ccc5c(c4)c4ccccc4n5CC)nc(-c4ccccc4)n3)ccc21
fluorescence lifetime (in C1CCOC1): 1.77 ns

SMILES: Cn1c2ccc(S(=O)(=O)O)cc2c(=O)c2cc(S(=O)(=O)O)ccc21
fluorescence lifetime (in CS(C)=O): 10.6 ns | fluorescence lifetime (in O): 16.7 ns

SMILES: CN(C)c1ccc(/C=C/C(=C(C#N)C#N)c2ccc3c4c(cccc24)CC3)cc1
fluorescence lifetime (in C1CCOC1): 5.2 ns | fluorescence lifetime (in CC#N): 2.25 ns | fluorescence lifetime (in CC(C)=O): 3.84 ns | fluorescence lifetime (in CCOC(C)=O): 4.98 ns | fluorescence lifetime (in CN(C)C=O): 3.31 ns | fluorescence lifetime (in CO): 2.85 ns | fluorescence lifetime (in Cc1ccccc1): 3.92 ns | fluorescence lifetime (in ClC(Cl)Cl): 4.27 ns

SMILES: CC1(C)CC(/C=C/c2ccc(-n3cccn3)cc2)=CC(=C(C#N)C#N)C1
fluorescence lifetime (in CCO): 0.05 ns

SMILES: Cc1ccc(-c2nc(-c3ccc(-c4nc(-c5ccc(C)cc5)c(-c5ccc(C)cc5)[nH]4)cc3)[nH]c2-c2ccc(C)cc2)cc1
fluorescence lifetime (in CS(C)=O): 1.07 ns

SMILES: C(/C=C/c1cc2c3c(c1)CCCN3CCC2)=C\c1ccncc1
fluorescence lifetime (in C1COCCO1): 0.25 ns | fluorescence lifetime (in CC#N): 0.57 ns

SMILES: CCc1c(C)[nH]c(C2=[N+]3C(=Cc4c(C)c(CC)c(/C=C/c5ccc(N(C)C)cc5)n4[B-]3(F)F)c3ccccc32)c1C
fluorescence lifetime (in ClCCl): 2.3 ns

SMILES: F[B-]1(F)OC(c2ccc(Br)cc2)=Cc2ccc3ccccc3[n+]21
fluorescence lifetime (in ClC(Cl)Cl): 1.21 ns

SMILES: NNC(=O)N1C(=O)c2cc(S(=O)(=O)[O-])cc3c(N)c(S(=O)(=O)[O-])cc(c23)C1=O
fluorescence lifetime (in O): 5.7 ns

SMILES: CCc1c(C)[nH]c(C2=[N+]3C(=Cc4c(C)c(CC)c(C)n4[B-]3(F)F)c3ccccc32)c1C
fluorescence lifetime (in ClCCl): 6.3 ns

SMILES: N#Cc1cc(N2c3ccccc3Oc3ccccc32)c(N2c3ccccc3Oc3ccccc32)cc1C#N
fluorescence lifetime (in c1ccc2c(c1)c1ccccc1n2-c1ccc(-c2ccc(-n3c4ccccc4c4ccccc43)cc2)cc1): 20 ns

SMILES: COC(=O)C(Cc1ccc2oc(-c3ccc4c(c3)c3ccccc3n4-c3ccccc3)nc2c1)NC(=O)OC(C)(C)C (stereo not given)
fluorescence lifetime (in C1CCCCC1): 2.29 ns | fluorescence lifetime (in C1CCOC1): 1.73 ns | fluorescence lifetime (in C1COCCO1): 1.96 ns | fluorescence lifetime (in CC1CCCO1): 1.83 ns | fluorescence lifetime (in CC1COC(=O)O1): 1.83 ns | fluorescence lifetime (in CC#N): 1.77 ns | fluorescence lifetime (in CC(C)=O): 1.75 ns | fluorescence lifetime (in CC(C)CC(C)(C)C): 2.22 ns | fluorescence lifetime (in CC(C)CO): 1.55 ns | fluorescence lifetime (in CC(C)O): 1.57 ns | fluorescence lifetime (in CC(C)OC(C)C): 1.66 ns | fluorescence lifetime (in CC(O)CO): 1.74 ns | fluorescence lifetime (in CCC(C)CC): 2.25 ns | fluorescence lifetime (in CCCCC): 2.66 ns | fluorescence lifetime (in CCCCCC): 2.23 ns | fluorescence lifetime (in CCCCCCCCC): 2.3 ns | fluorescence lifetime (in CCCCCCCCCC): 2.33 ns | fluorescence lifetime (in CCCCCCCO): 1.55 ns | fluorescence lifetime (in CCCCCCO): 1.56 ns | fluorescence lifetime (in CCCCCO): 1.54 ns | fluorescence lifetime (in CCCCO): 1.54 ns | fluorescence lifetime (in CCO): 1.66 ns | fluorescence lifetime (in CCOC(C)=O): 1.87 ns | fluorescence lifetime (in CCOCC): 2.13 ns | fluorescence lifetime (in CN(C)C=O): 1.73 ns | fluorescence lifetime (in CO): 1.72 ns | fluorescence lifetime (in COCCOC): 1.2 ns | fluorescence lifetime (in CS(C)=O): 1.69 ns | fluorescence lifetime (in Cc1ccccc1): 1.66 ns | fluorescence lifetime (in Cc1ccccc1C): 1.76 ns | fluorescence lifetime (in ClC(Cl)Cl): 1.32 ns | fluorescence lifetime (in ClCCl): 1.5 ns | fluorescence lifetime (in NC=O): 1.86 ns | fluorescence lifetime (in OC1CCCCC1): 1.58 ns | fluorescence lifetime (in OCCO): 1.84 ns | fluorescence lifetime (in c1ccccc1): 1.67 ns
